Source: PubChem BioAssay (NCI)
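Five concentrations, 48 hours, 96-well plates. GI50 = concentration required for 50% inhibition of growth. TGI marks complete inhibition of growth.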

Key:
Test in all cases: NCI anticancer screen, dose series, 48 h
OVCAR-8 ovarian = tested on: OVCAR-8 ovarian
TK-10 renal = tested on: TK-10 renal
MOLT-4 leukemia = tested on: MOLT-4 leukemia
HOP-92 NSCLC = tested on: HOP-92 NSCLC
OVCAR-5 ovarian = tested on: OVCAR-5 ovarian
DU-145 prostate = tested on: DU-145 prostate
HCT-116 colon = tested on: HCT-116 colon
BT-549 breast = tested on: BT-549 breast
RPMI-8226 leukemia = tested on: RPMI-8226 leukemia
UACC-62 melanoma = tested on: UACC-62 melanoma
NCI-H226 lung = tested on: NCI-H226 lung
COLO 205 colon = tested on: COLO 205 colon
HCT-15 colon = tested on: HCT-15 colon
IGROV1 ovarian = tested on: IGROV1 ovarian
NCI-H23 lung = tested on: NCI-H23 lung
KM12 colon = tested on: KM12 colon
OVCAR-4 ovarian = tested on: OVCAR-4 ovarian
UO-31 renal = tested on: UO-31 renal
SK-MEL-2 melanoma = tested on: SK-MEL-2 melanoma
RXF 393 renal = tested on: RXF 393 renal
SF-539 CNS = tested on: SF-539 CNS
SK-MEL-5 melanoma = tested on: SK-MEL-5 melanoma
HT29 colon = tested on: HT29 colon
SNB-19 CNS = tested on: SNB-19 CNS
EKVX NSCLC = tested on: EKVX NSCLC
MCF7 breast = tested on: MCF7 breast
HOP-62 NSCLC = tested on: HOP-62 NSCLC
SF-268 CNS = tested on: SF-268 CNS
SF-295 CNS = tested on: SF-295 CNS
SK-MEL-28 melanoma = tested on: SK-MEL-28 melanoma
NCI/ADR-RES ovarian = tested on: NCI/ADR-RES ovarian
MDA-MB-231 breast = tested on: MDA-MB-231 breast
T-47D breast = tested on: T-47D breast
NCI-H460 lung = tested on: NCI-H460 lung
HCC-2998 colon = tested on: HCC-2998 colon
K-562 leukemia = tested on: K-562 leukemia
CCRF-CEM leukemia = tested on: CCRF-CEM leukemia
A498 renal = tested on: A498 renal
UACC-257 melanoma = tested on: UACC-257 melanoma
HS 578T breast = tested on: HS 578T breast
ACHN renal = tested on: ACHN renal
PC-3 prostate = tested on: PC-3 prostate
HL-60(TB) leukemia = tested on: HL-60(TB) leukemia
SK-OV-3 ovarian = tested on: SK-OV-3 ovarian
M14 melanoma = tested on: M14 melanoma
CAKI-1 renal = tested on: CAKI-1 renal
MDA-MB-435 = tested on: MDA-MB-435
OVCAR-3 ovarian = tested on: OVCAR-3 ovarian
U251 CNS = tested on: U251 CNS
SN12C renal = tested on: SN12C renal
NCI-H522 lung = tested on: NCI-H522 lung
A549 NSCLC = tested on: A549 NSCLC
SW-620 colon = tested on: SW-620 colon
786-0 renal = tested on: 786-0 renal
MALME-3M melanoma = tested on: MALME-3M melanoma
LOX IMVI melanoma = tested on: LOX IMVI melanoma
SNB-75 CNS = tested on: SNB-75 CNS

CCOc1cc2ncc(C#N)c(Nc3ccc(F)c(Cl)c3)c2cc1NC(=O)CC1CCSS1 (stereo unspecified)
GI50 (OVCAR-8 ovarian): 809 nM
TGI (OVCAR-8 ovarian): 1920 nM
GI50 (TK-10 renal): 556 nM
TGI (TK-10 renal): 1480 nM
GI50 (MOLT-4 leukemia): 748 nM
TGI (MOLT-4 leukemia): 1890 nM
GI50 (HOP-92 NSCLC): 3240 nM
TGI (HOP-92 NSCLC): 13700 nM
GI50 (OVCAR-5 ovarian): 2100 nM
TGI (OVCAR-5 ovarian): 13500 nM
GI50 (DU-145 prostate): 580 nM
TGI (DU-145 prostate): 1280 nM
GI50 (HCT-116 colon): 630 nM
TGI (HCT-116 colon): 1270 nM
GI50 (BT-549 breast): 1500 nM
TGI (BT-549 breast): 7460 nM
GI50 (RPMI-8226 leukemia): 1640 nM
TGI (RPMI-8226 leukemia): 33300 nM
GI50 (UACC-62 melanoma): 1970 nM
TGI (UACC-62 melanoma): 7280 nM
GI50 (NCI-H226 lung): 2110 nM
TGI (NCI-H226 lung): 7400 nM
GI50 (COLO 205 colon): 982 nM
TGI (COLO 205 colon): 3390 nM
GI50 (HCT-15 colon): 649 nM
TGI (HCT-15 colon): 1700 nM
GI50 (IGROV1 ovarian): 392 nM
TGI (IGROV1 ovarian): 1630 nM
GI50 (NCI-H23 lung): 1120 nM
TGI (NCI-H23 lung): 4550 nM
GI50 (KM12 colon): 563 nM
TGI (KM12 colon): 1130 nM
GI50 (OVCAR-4 ovarian): 663 nM
TGI (OVCAR-4 ovarian): 2350 nM
GI50 (UO-31 renal): 395 nM
TGI (UO-31 renal): 955 nM
GI50 (SK-MEL-2 melanoma): 697 nM
TGI (SK-MEL-2 melanoma): 2000 nM
GI50 (RXF 393 renal): 1130 nM
TGI (RXF 393 renal): 3970 nM
GI50 (SF-539 CNS): 5000 nM
TGI (SF-539 CNS): 17400 nM
GI50 (SK-MEL-5 melanoma): 3240 nM
TGI (SK-MEL-5 melanoma): 7230 nM
GI50 (HT29 colon): 603 nM
TGI (HT29 colon): 1200 nM
GI50 (SNB-19 CNS): 1980 nM
TGI (SNB-19 CNS): 12300 nM
GI50 (EKVX NSCLC): 476 nM
TGI (EKVX NSCLC): 1930 nM
GI50 (MCF7 breast): 694 nM
TGI (MCF7 breast): 1900 nM
GI50 (HOP-62 NSCLC): 533 nM
TGI (HOP-62 NSCLC): 1160 nM
GI50 (SF-268 CNS): 740 nM
TGI (SF-268 CNS): 2230 nM
GI50 (SF-295 CNS): 1650 nM
TGI (SF-295 CNS): 6670 nM
GI50 (SK-MEL-28 melanoma): 659 nM
TGI (SK-MEL-28 melanoma): 1530 nM
GI50 (NCI/ADR-RES ovarian): 751 nM
TGI (NCI/ADR-RES ovarian): 2040 nM
GI50 (MDA-MB-231 breast): 833 nM
TGI (MDA-MB-231 breast): 2000 nM
GI50 (T-47D breast): 1380 nM
TGI (T-47D breast): 6920 nM
GI50 (NCI-H460 lung): 676 nM
TGI (NCI-H460 lung): 1410 nM
GI50 (HCC-2998 colon): 569 nM
TGI (HCC-2998 colon): 1100 nM
GI50 (K-562 leukemia): 881 nM
TGI (K-562 leukemia): 2290 nM
GI50 (CCRF-CEM leukemia): 792 nM
TGI (CCRF-CEM leukemia): 2060 nM
GI50 (A498 renal): 3050 nM
TGI (A498 renal): 11400 nM
GI50 (UACC-257 melanoma): 1960 nM
TGI (UACC-257 melanoma): 6920 nM
GI50 (HS 578T breast): 1390 nM
TGI (HS 578T breast): 11700 nM
GI50 (ACHN renal): 429 nM
TGI (ACHN renal): 1150 nM
GI50 (PC-3 prostate): 629 nM
TGI (PC-3 prostate): 1210 nM
GI50 (HL-60(TB) leukemia): 930 nM
TGI (HL-60(TB) leukemia): 4000 nM
GI50 (SK-OV-3 ovarian): 509 nM
TGI (SK-OV-3 ovarian): 990 nM
GI50 (M14 melanoma): 572 nM
TGI (M14 melanoma): 1330 nM
GI50 (CAKI-1 renal): 979 nM
TGI (CAKI-1 renal): 4590 nM
GI50 (MDA-MB-435): 597 nM
TGI (MDA-MB-435): 1230 nM
GI50 (OVCAR-3 ovarian): 717 nM
TGI (OVCAR-3 ovarian): 2080 nM
GI50 (U251 CNS): 1100 nM
TGI (U251 CNS): 3460 nM
GI50 (SN12C renal): 880 nM
TGI (SN12C renal): 2500 nM
GI50 (NCI-H522 lung): 786 nM
TGI (NCI-H522 lung): 4700 nM
GI50 (A549 NSCLC): 616 nM
TGI (A549 NSCLC): 1160 nM
GI50 (SW-620 colon): 1040 nM
TGI (SW-620 colon): 3570 nM
GI50 (786-0 renal): 1840 nM
TGI (786-0 renal): 12900 nM
GI50 (MALME-3M melanoma): 1640 nM
TGI (MALME-3M melanoma): 6410 nM
GI50 (LOX IMVI melanoma): 579 nM
TGI (LOX IMVI melanoma): 1170 nM

O=C(NCCCCN(CCCNC(=O)C(F)(F)F)Cc1ccccc1)C(F)(F)F
TGI (OVCAR-8 ovarian): > 100000 nM
TGI (TK-10 renal): > 100000 nM
TGI (MOLT-4 leukemia): > 100000 nM
TGI (HOP-92 NSCLC): > 100000 nM
TGI (OVCAR-5 ovarian): > 100000 nM
TGI (DU-145 prostate): > 100000 nM
TGI (HCT-116 colon): > 100000 nM
TGI (BT-549 breast): > 100000 nM
TGI (RPMI-8226 leukemia): > 100000 nM
TGI (UACC-62 melanoma): > 100000 nM
TGI (NCI-H226 lung): > 100000 nM
TGI (COLO 205 colon): > 100000 nM
TGI (HCT-15 colon): > 100000 nM
TGI (IGROV1 ovarian): > 100000 nM
TGI (NCI-H23 lung): > 100000 nM
TGI (KM12 colon): > 100000 nM
TGI (OVCAR-4 ovarian): > 100000 nM
TGI (UO-31 renal): > 100000 nM
TGI (SK-MEL-2 melanoma): > 100000 nM
TGI (RXF 393 renal): > 100000 nM
TGI (SF-539 CNS): > 100000 nM
TGI (SK-MEL-5 melanoma): > 100000 nM
TGI (HT29 colon): > 100000 nM
TGI (SNB-19 CNS): > 100000 nM
TGI (EKVX NSCLC): > 100000 nM
TGI (MCF7 breast): > 100000 nM
TGI (SNB-75 CNS): > 100000 nM
TGI (HOP-62 NSCLC): > 100000 nM
TGI (SF-268 CNS): > 100000 nM
TGI (SF-295 CNS): > 100000 nM
TGI (SK-MEL-28 melanoma): > 100000 nM
TGI (NCI/ADR-RES ovarian): > 100000 nM
TGI (MDA-MB-231 breast): > 100000 nM
TGI (T-47D breast): > 100000 nM
TGI (NCI-H460 lung): > 100000 nM
TGI (HCC-2998 colon): > 100000 nM
TGI (K-562 leukemia): > 100000 nM
TGI (CCRF-CEM leukemia): > 100000 nM
TGI (A498 renal): > 100000 nM
TGI (UACC-257 melanoma): > 100000 nM
TGI (HS 578T breast): > 100000 nM
TGI (ACHN renal): > 100000 nM
TGI (PC-3 prostate): > 100000 nM
TGI (HL-60(TB) leukemia): > 100000 nM
TGI (SK-OV-3 ovarian): > 100000 nM
TGI (M14 melanoma): > 100000 nM
TGI (MDA-MB-435): > 100000 nM
TGI (OVCAR-3 ovarian): > 100000 nM
TGI (U251 CNS): > 100000 nM
TGI (SN12C renal): > 100000 nM
TGI (NCI-H522 lung): > 100000 nM
TGI (A549 NSCLC): > 100000 nM
TGI (SW-620 colon): > 100000 nM
TGI (786-0 renal): > 100000 nM
